Results taken from patent publication EP4667458A1 (Kanaph Therapeutics Inc., priority 2023, dated 2024).

Molecular target: T1, KRAS^G12C::SOS1 (Homo sapiens, UniProt Q07889)
T1 sequence (Q07889 1-1333): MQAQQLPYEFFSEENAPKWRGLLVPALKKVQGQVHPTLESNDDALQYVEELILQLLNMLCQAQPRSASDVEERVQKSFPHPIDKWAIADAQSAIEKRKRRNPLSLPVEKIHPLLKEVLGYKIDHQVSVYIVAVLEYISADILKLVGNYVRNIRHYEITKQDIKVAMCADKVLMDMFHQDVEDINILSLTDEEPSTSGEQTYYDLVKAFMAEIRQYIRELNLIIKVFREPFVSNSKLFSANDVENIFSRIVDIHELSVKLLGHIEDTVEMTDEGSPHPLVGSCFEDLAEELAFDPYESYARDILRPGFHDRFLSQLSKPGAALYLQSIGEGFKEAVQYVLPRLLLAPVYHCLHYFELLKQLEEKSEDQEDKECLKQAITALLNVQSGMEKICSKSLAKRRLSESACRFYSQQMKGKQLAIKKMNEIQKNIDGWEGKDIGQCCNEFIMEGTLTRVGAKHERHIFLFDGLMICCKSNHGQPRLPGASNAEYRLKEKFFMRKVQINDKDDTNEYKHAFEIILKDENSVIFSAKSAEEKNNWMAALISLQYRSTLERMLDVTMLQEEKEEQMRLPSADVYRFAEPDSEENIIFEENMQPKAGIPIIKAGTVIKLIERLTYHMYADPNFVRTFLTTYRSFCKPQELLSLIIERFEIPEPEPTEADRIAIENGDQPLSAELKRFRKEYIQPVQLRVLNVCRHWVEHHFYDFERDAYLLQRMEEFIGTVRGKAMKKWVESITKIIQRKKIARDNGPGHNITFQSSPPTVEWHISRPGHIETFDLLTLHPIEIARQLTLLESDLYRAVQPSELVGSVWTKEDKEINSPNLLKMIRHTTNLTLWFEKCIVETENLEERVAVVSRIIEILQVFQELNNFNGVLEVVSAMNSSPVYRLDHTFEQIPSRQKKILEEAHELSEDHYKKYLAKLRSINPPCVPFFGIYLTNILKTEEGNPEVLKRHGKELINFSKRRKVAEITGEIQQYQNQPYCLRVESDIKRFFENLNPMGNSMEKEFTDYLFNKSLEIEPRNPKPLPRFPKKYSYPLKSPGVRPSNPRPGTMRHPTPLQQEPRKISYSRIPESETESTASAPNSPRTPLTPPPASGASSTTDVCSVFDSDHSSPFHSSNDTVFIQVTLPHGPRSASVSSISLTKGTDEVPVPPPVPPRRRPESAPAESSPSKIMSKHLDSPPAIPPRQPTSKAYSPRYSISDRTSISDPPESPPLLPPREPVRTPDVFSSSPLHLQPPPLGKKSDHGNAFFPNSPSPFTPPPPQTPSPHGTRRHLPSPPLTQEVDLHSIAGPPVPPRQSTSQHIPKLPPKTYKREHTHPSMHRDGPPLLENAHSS
Test: KRAS G12C::SOS1 protein-protein interaction (PPI) inhibition assay (HTRF binding kit)

SMILES	IC50
C[C@@H](NC(=O)c1ccc(=O)n(-c2ccccc2)n1)c1cccc(I)c1 [Example 188, (R)-N-(1-(3-iodophenyl)ethyl)-6-oxo-1-phenyl-1,6-dihydropyridazine-3-carboxamide]	< 1000 nM
COc1ccc(-n2cc(C(=O)N[C@H](C)c3cc(N)cc(C(F)(F)F)c3)ccc2=O)c(F)c1 [Example 180, N-[(1R)-1-[3-amino-5-(trifluoromethyl)phenyl]ethyl]-1-(2-fluoro-4-methoxy-phenyl)-6-oxo-pyridine-3-carboxamide]	< 1000 nM
C[C@@H](NC(=O)c1ccc(=O)n(-c2cccc(-c3cnnn3C)c2)n1)c1cc(N)cc(C(F)(F)F)c1 [Example 369, N-[(1R)-1-[3-amino-5-(trifluoromethyl)phenyl]ethyl]-1-[3-(3-methyltriazol-4-yl)phenyl]-6-oxo-pyridazine-3-carboxamide]	< 1000 nM
C[C@@H](NC(=O)c1ccc(=O)n(-c2cccc(-c3ccn(C(F)F)n3)c2)n1)c1cccc(C(F)(F)CO)c1F [Example 345, N-[(1R)-1-[3-(1,1-difluoro-2-hydroxy-ethyl)-2-fluoro-phenyl]ethyl]-1-[3-[1-(difluoromethyl)pyrazol-3-yl]phenyl]-6-oxo-pyridazine-3-carboxamide]	< 1000 nM
COc1cccc(-n2nc(C(=O)N[C@H](C)c3cccc(C(F)(F)CO)c3F)ccc2=O)c1F [Example 184, N-[(1R)-1-[3-(1,1-difluoro-2-hydroxy-ethyl)-2-fluoro-phenyl]ethyl]-1-(2-fluoro-3-methoxyphenyl)-6-oxo-pyridazine-3-carboxamide]	< 1000 nM
C[C@@H](NC(=O)c1ccc(=O)n(-c2ccc(OC(F)(F)F)cc2)n1)c1cccc(C(F)(F)CO)c1F [Example 202, N-[(1R)-1-[3-(1,1-difluoro-2-hydroxy-ethyl)-2-fluoro-phenyl]ethyl]-6-oxo-1-[4-(trifluoromethoxy)phenyl]pyridazine-3-carboxamide]	< 1000 nM
Cc1cc(C(=O)N[C@H](C)c2cc(N)cc(C(F)(F)F)c2)nn(-c2ccccc2)c1=O [Example 214, N-[(1R)-1-[3-amino-5-(trifluoromethyl)phenyl]ethyl]-5-methyl-6-oxo-1-phenyl-pyridazine-3-carboxamide]	< 1000 nM

Results, then the compound that gave them:

IC50	SMILES
< 1000 nM	CNCc1ccc(Cl)cc1-c1ccc([C@@H](C)NC(=O)c2ccc(=O)n(-c3cccnc3F)n2)s1 [Example 270, N-[(1R)-1-[5-[5-chloro-2-(methylaminomethyl)phenyl]-2-thienyl]ethyl]-1-(2-fluoro-3-pyridyl)-6-oxo-pyridazine-3-carboxamide]
< 1000 nM	C[C@@H](NC(=O)c1nn(-c2ccccc2F)c(=O)c2cc[nH]c12)c1cccc(C(F)(F)CO)c1F [Example 314, N-[(1R)-1-[3-(1,1-difluoro-2-hydroxy-ethyl)-2-fluoro-phenyl]ethyl]-5-(2-fluorophenyl)-4-oxo-1H-pyrrolo[2,3-d]pyridazine-7-carboxamide]
< 1000 nM	CCNCc1ccc(F)cc1-c1ccc([C@@H](C)NC(=O)c2ccc(=O)n(-c3cccnc3F)n2)s1 [Example 289, N-[(1R)-1-[5-[2-(ethylaminomethyl)-5-fluorophenyl]-2-thienyl]ethyl]-1-(2-fluoro-3-pyridyl)-6-oxo-pyridazine-3-carboxamide]
< 1000 nM	CNCc1cc2c(cc1-c1ccc([C@@H](C)NC(=O)c3ccc(=O)n(-c4ccccc4F)c3)s1)CCC2 [Example 273, 1-(2-fluorophenyl)-N-[(1R)-1-[5-[6-(methylaminomethyl)indan-5-yl]-2-thienyl]ethyl]-6-oxo-pyridine-3-carboxamide]
< 1000 nM	C[C@@H](NC(=O)c1nn(-c2ccccc2F)c(=O)c2ccsc12)c1cccc(C(F)(F)CO)c1F [Example 310, N-[(1R)-1-[3-(1,1-difluoro-2-hydroxy-ethyl)-2-fluoro-phenyl]ethyl]-5-(2-fluorophenyl)-4-oxo-thieno[2,3-d]pyridazine-7-carboxamide]
